Reference: patent publication US20060100105A1, “Agents containing carboxylic acid and the use of the same in plant cultivation” (priority 2002, published 2006)

Tested on: Winter oilseed rape (cv. Pronto)
Assay: Shoot elongation in winter oilseed rape
Assay type: in vivo
Conditions: active ingredient alone
Method: The tank mixers employed in Example 1 are prepared by mixing an emulsion concentrate with a metconazole content of 90 g/l and an aqueous concentrate with mepiquat chloride content of 600 g/l using a magnetic stirrer (experiment T1).
Winter oilseed rape (cv. Pronto) was sown in autumn and approximately one month later treated as specified in Table 3. Shoot elongation and root development were assessed a few weeks later. The elongation results are compiled in Table 3.

SMILES	shortening effect (in words)
CC1(C)CCC(Cc2ccc(Cl)cc2)C1(O)Cn1cncn1 (centres unmarked) [Metconazole, metconazole]	very pronounced
C[N+]1(C)CCCCC1.[Cl-] [mepiquat-chloride, N,N-dimethylpiperidinium chloride]	only results in some degree of shortening at scoring date 2
